# Results taken from patent publication US20230085307A1, “PYRIDAZINONE COMPOUND AND HERBICIDE” (NISSAN CHEMICAL CORPORATION, priority 2019, published 2023).
# What was measured:
# redroot pigweed [1] = assay: Test Example 4: herbicidal effect by soil treatment (Table 19, symbol N); type: in vivo, redroot pigweed (Amaranthus retroflexus)
# How it was run: (§1)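 Herbicidal effect was rated 3 weeks after treatment, using the scoring criteria of an earlier test. The compound, formulated as an emulsion and diluted in water to a set herbicide amount, had been sprayed uniformly on soil over freshly sown seeds. Growth took place in a greenhouse at 25° C. to 30° C.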
# persian speedwell [2] = assay: Test Example 5: herbicidal effect by foliage application, plastic box (Table 20, symbol R); type: in vivo, Persian speedwell (Veronica persica)
# How it was run: (§2)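 Foliar spray test: emulsion formulation diluted in water to a set application rate, sprayed onto 14-day-old plants raised in diluvial soil at 25° C to 30° C under glass. Both herbicidal effect and crop effect rated visually three weeks later.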
# windgrass [3] = assay: Test Example 5: herbicidal effect by foliage application, plastic box (Table 20, symbol L); type: in vivo, windgrass (Apera spica-venti); conditions: foliage application, AAH 320 g/ha, three weeks after application
# How it was run: as §2
# velvetleaf [4] = assay: Test Example 4: herbicidal effect by soil treatment (Table 19, symbol M); type: in vivo, velvetleaf (Abutilon theophrasti)
# How it was run: as §1
# barnyard grass [5] = assay: Test Example 3: herbicidal effect by foliage application, Wagner pot (Table 18, symbol H); type: in vivo, barnyard grass (Echinochloa crus-galli); conditions: 320 g/ha
# How it was run: (§3)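 Plants were sown in alluvial soil held under 0.1–0.5 cm standing water and grown 14 days in a greenhouse at 25–30 °C. An emulsifiable formulation, water-diluted to the set dose, was then sprayed onto the foliage, and effects were scored three weeks later using previously defined criteria.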
# Italian ryegrass [6] = assay: Test Example 4: herbicidal effect by soil treatment (Table 19, symbol K); type: in vivo, Italian ryegrass (Lolium multiflorum)
# How it was run: as §1
# lambsquarters [7] = assay: Test Example 4: herbicidal effect by soil treatment (Table 19, symbol O); type: in vivo, lambsquarters (Chenopodium album)
# How it was run: as §1
# blackgrass [8] = assay: Test Example 5: herbicidal effect by foliage application, plastic box (Table 20, symbol J); type: in vivo, blackgrass (Alopecurus myosuroides)
# How it was run: as §2
# wild oat [9] = assay: Test Example 5: herbicidal effect by foliage application, plastic box (Table 20, symbol I); type: in vivo, wild oat (Avena fatua)
# How it was run: as §2
# chickweed [10] = assay: Test Example 4: herbicidal effect by soil treatment (Table 19, symbol P); type: in vivo, common chickweed (Stellaria media)
# How it was run: as §1
# chickweed [11] = assay: Test Example 5: herbicidal effect by foliage application, plastic box (Table 20, symbol P); type: in vivo, common chickweed (Stellaria media)
# How it was run: as §2
# Chinese sprangletop = assay: Test Example 3: herbicidal effect by foliage application, Wagner pot (Table 18, symbol D); type: in vivo, chinese sprangletop (Leptochloa chinensis); conditions: 320 g/ha
# How it was run: as §3
# southern crabgrass [12] = assay: Test Example 4: herbicidal effect by soil treatment (Table 19, symbol F); type: in vivo, southern crabgrass (Digitaria ciliaris)
# How it was run: as §1
# Japanese bulrush = assay: Test Example 1: herbicidal activity, application before weed generation under submerged conditions (Table 16, symbol B); type: in vivo, Japanese bulrush (Schoenoplectus juncoides)
# How it was run: (§4)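 Alluvial soil was flooded to 4 cm depth, weed seeds were sown mixed and 2.5-leaf rice seedlings were transplanted. On sowing day, the compound's emulsion, diluted in water to a set dose, was applied to the water surface. Plants grew at 25–30 °C and were scored 0–5 after three weeks.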
# redroot pigweed [13] = assay: Test Example 5: herbicidal effect by foliage application, plastic box (Table 20, symbol N); type: in vivo, redroot pigweed (Amaranthus retroflexus)
# How it was run: as §2
# lambsquarters [14] = assay: Test Example 5: herbicidal effect by foliage application, plastic box (Table 20, symbol O); type: in vivo, lambsquarters (Chenopodium album)
# How it was run: as §2
# barnyard grass [15] = assay: Test Example 4: herbicidal effect by soil treatment (Table 19, symbol H); type: in vivo, barnyard grass (Echinochloa crus-galli)
# How it was run: as §1
# green foxtail [16] = assay: Test Example 5: herbicidal effect by foliage application, plastic box (Table 20, symbol G); type: in vivo, green foxtail (Setaria viridis)
# How it was run: as §2
# velvetleaf [17] = assay: Test Example 5: herbicidal effect by foliage application, plastic box (Table 20, symbol M); type: in vivo, velvetleaf (Abutilon theophrasti)
# How it was run: as §2
# windgrass [18] = assay: Test Example 4: herbicidal effect by soil treatment (Table 19, symbol L); type: in vivo, windgrass (Apera spica-venti)
# How it was run: as §1
# barnyard grass [19] = assay: Test Example 5: herbicidal effect by foliage application, plastic box (Table 20, symbol H); type: in vivo, barnyard grass (Echinochloa crus-galli)
# How it was run: as §2
# wild oat [20] = assay: Test Example 4: herbicidal effect by soil treatment (Table 19, symbol I); type: in vivo, wild oat (Avena fatua)
# How it was run: as §1
# Italian ryegrass [21] = assay: Test Example 5: herbicidal effect by foliage application, plastic box (Table 20, symbol K); type: in vivo, Italian ryegrass (Lolium multiflorum)
# How it was run: as §2
# blackgrass [22] = assay: Test Example 4: herbicidal effect by soil treatment (Table 19, symbol J); type: in vivo, blackgrass (Alopecurus myosuroides)
# How it was run: as §1
# green foxtail [23] = assay: Test Example 4: herbicidal effect by soil treatment (Table 19, symbol G); type: in vivo, green foxtail (Setaria viridis)
# How it was run: as §1
# late watergrass = assay: Test Example 1: herbicidal activity, application before weed generation under submerged conditions (Table 16, symbol A); type: in vivo, late watergrass (Echinochloa oryzicola)
# How it was run: as §4
# oval-leafed pondweed = assay: Test Example 1: herbicidal activity, application before weed generation under submerged conditions (Table 16, symbol C); type: in vivo, oval-leafed pondweed (Monochoria vaginalis)
# How it was run: as §4
# southern crabgrass [24] = assay: Test Example 5: herbicidal effect by foliage application, plastic box (Table 20, symbol F); type: in vivo, southern crabgrass (Digitaria ciliaris)
# How it was run: as §2
# persian speedwell [25] = assay: Test Example 4: herbicidal effect by soil treatment (Table 19, symbol R); type: in vivo, Persian speedwell (Veronica persica)
# How it was run: as §1
# rice flat sedge = assay: Test Example 3: herbicidal effect by foliage application, Wagner pot (Table 18, symbol E); type: in vivo, rice flat sedge (Cyperus iria); conditions: 320 g/ha
# How it was run: as §3
# [26] = foliage application, AAH 320 g/ha, three weeks after application
# [27] = amount of applied herbicide 320 g/ha
# [28] = 320 g/ha, foliage application after 14-day growth, evaluated three weeks after application
smiles,measurement,setting,value
Cc1nn(C)c(=O)c(-c2c(-c3ccc(OS(C)(=O)=O)cc3)sc3ccccc23)c1O [1-146],"N: redroot pigweed, herbicidal effect rating",redroot pigweed [1]; AAH 320 g/ha,5 (Herbicidal rate of 90% or more (almost completely withered))
same,"R: persian speedwell, herbicidal effect",persian speedwell [2]; [26],5 (Herbicidal rate of 90% or more (almost completely withered))
same,"L: windgrass, herbicidal effect",windgrass [3],0 (Herbicidal rate of 5% or less (almost no effect))
same,"M: velvetleaf, herbicidal effect rating",velvetleaf [4]; AAH 320 g/ha,5 (Herbicidal rate of 90% or more (almost completely withered))
same,"herbicidal effect on H (barnyard grass), rating 0-5",barnyard grass [5],5 (Herbicidal rate of 90% or more (almost completely withered))
same,"K: Italian ryegrass, herbicidal effect rating",Italian ryegrass [6]; AAH 320 g/ha,4 (Herbicidal rate of 70% or more and less than 90%)
same,"O: lambsquarters, herbicidal effect rating",lambsquarters [7]; AAH 320 g/ha,5 (Herbicidal rate of 90% or more (almost completely withered))
same,"J: blackgrass, herbicidal effect",blackgrass [8]; [26],1 (Herbicidal rate of 5% or more and less than 20%)
same,"I: wild oat, herbicidal effect",wild oat [9]; [26],0 (Herbicidal rate of 5% or less (almost no effect))
same,"P: chickweed, herbicidal effect rating",chickweed [10]; AAH 320 g/ha,4 (Herbicidal rate of 70% or more and less than 90%)
same,"P: chickweed, herbicidal effect",chickweed [11]; [26],5 (Herbicidal rate of 90% or more (almost completely withered))
same,"herbicidal effect on D (Chinese sprangletop), rating 0-5",Chinese sprangletop,2 (Herbicidal rate of 20% or more and less than 40%)
same,"F: southern crabgrass, herbicidal effect rating",southern crabgrass [12]; AAH 320 g/ha,4 (Herbicidal rate of 70% or more and less than 90%)
same,Herbicidal effect on B: Japanese bulrush (grade 0-5),Japanese bulrush; 320 g/ha applied herbicide,0 (Herbicidal rate of 5% or less (almost no effect))
same,"N: redroot pigweed, herbicidal effect",redroot pigweed [13]; [26],3 (Herbicidal rate of 40% or more and less than 70%)
same,"O: lambsquarters, herbicidal effect",lambsquarters [14]; [26],3 (Herbicidal rate of 40% or more and less than 70%)
same,"H: barnyard grass, herbicidal effect rating",barnyard grass [15]; AAH 320 g/ha,5 (Herbicidal rate of 90% or more (almost completely withered))
same,"G: green foxtail, herbicidal effect",green foxtail [16]; [26],5 (Herbicidal rate of 90% or more (almost completely withered))
same,"M: velvetleaf, herbicidal effect",velvetleaf [17]; [26],4 (Herbicidal rate of 70% or more and less than 90%)
same,"L: windgrass, herbicidal effect rating",windgrass [18]; AAH 320 g/ha,0 (Herbicidal rate of 5% or less (almost no effect))
same,"H: barnyard grass, herbicidal effect",barnyard grass [19]; [26],5 (Herbicidal rate of 90% or more (almost completely withered))
same,"I: wild oat, herbicidal effect rating",wild oat [20]; AAH 320 g/ha,0 (Herbicidal rate of 5% or less (almost no effect))
same,"K: Italian ryegrass, herbicidal effect",Italian ryegrass [21]; [26],5 (Herbicidal rate of 90% or more (almost completely withered))
same,"J: blackgrass, herbicidal effect rating",blackgrass [22]; AAH 320 g/ha,0 (Herbicidal rate of 5% or less (almost no effect))
same,"G: green foxtail, herbicidal effect rating",green foxtail [23]; AAH 320 g/ha,5 (Herbicidal rate of 90% or more (almost completely withered))
same,Herbicidal effect on A: late watergrass (grade 0-5),late watergrass; 320 g/ha applied herbicide,3 (Herbicidal rate of 40% or more and less than 70%)
same,Herbicidal effect on C: oval-leafed pondweed (grade 0-5),oval-leafed pondweed; 320 g/ha applied herbicide,0 (Herbicidal rate of 5% or less (almost no effect))
same,"F: southern crabgrass, herbicidal effect",southern crabgrass [24]; [26],4 (Herbicidal rate of 70% or more and less than 90%)
same,"R: persian speedwell, herbicidal effect rating",persian speedwell [25]; AAH 320 g/ha,5 (Herbicidal rate of 90% or more (almost completely withered))
COc1ccc(-c2sc3c(Cl)cccc3c2-c2c(O)c(C)nn(C)c2=O)cc1 [4-023],"Herbicidal effect by soil treatment, N: redroot pigweed",redroot pigweed [1]; [27],2 (Herbicidal rate of 20% or more and less than 40%)
same,herbicidal effect on R: persian speedwell (evaluation grade 0-5),persian speedwell [2]; [28],0 (Herbicidal rate of 5% or less (almost no effect))
same,"Herbicidal effect by soil treatment, M: velvetleaf",velvetleaf [4]; [27],0 (Herbicidal rate of 5% or less (almost no effect))
same,herbicidal effect on rice flat sedge (E),rice flat sedge,5 (Herbicidal rate of 90% or more (almost completely withered))
same,herbicidal effect on barnyard grass (H),barnyard grass [5],5 (Herbicidal rate of 90% or more (almost completely withered))
same,"Herbicidal effect by soil treatment, K: Italian ryegrass",Italian ryegrass [6]; [27],5 (Herbicidal rate of 90% or more (almost completely withered))
same,"Herbicidal effect by soil treatment, O: lambsquarters",lambsquarters [7]; [27],3 (Herbicidal rate of 40% or more and less than 70%)
same,herbicidal effect on J: blackgrass (evaluation grade 0-5),blackgrass [8]; [28],0 (Herbicidal rate of 5% or less (almost no effect))
same,herbicidal effect on I: wild oat (evaluation grade 0-5),wild oat [9]; [28],0 (Herbicidal rate of 5% or less (almost no effect))
same,"Herbicidal effect by soil treatment, P: chickweed",chickweed [10]; [27],5 (Herbicidal rate of 90% or more (almost completely withered))
same,herbicidal effect on P: chickweed (evaluation grade 0-5),chickweed [11]; [28],5 (Herbicidal rate of 90% or more (almost completely withered))
same,herbicidal effect on Chinese sprangletop (D),Chinese sprangletop,3 (Herbicidal rate of 40% or more and less than 70%)
same,"Herbicidal effect by soil treatment, F: southern crabgrass",southern crabgrass [12]; [27],0 (Herbicidal rate of 5% or less (almost no effect))
same,"Herbicidal effect, B: Japanese bulrush",Japanese bulrush; [27],0 (Herbicidal rate of 5% or less (almost no effect))
same,herbicidal effect on N: redroot pigweed (evaluation grade 0-5),redroot pigweed [13]; [28],1 (Herbicidal rate of 5% or more and less than 20%)
same,herbicidal effect on O: lambsquarters (evaluation grade 0-5),lambsquarters [14]; [28],2 (Herbicidal rate of 20% or more and less than 40%)
same,"Herbicidal effect by soil treatment, H: barnyard grass",barnyard grass [15]; [27],0 (Herbicidal rate of 5% or less (almost no effect))
same,herbicidal effect on G: green foxtail (evaluation grade 0-5),green foxtail [16]; [28],1 (Herbicidal rate of 5% or more and less than 20%)
same,herbicidal effect on M: velvetleaf (evaluation grade 0-5),velvetleaf [17]; [28],3 (Herbicidal rate of 40% or more and less than 70%)
same,"Herbicidal effect by soil treatment, L: windgrass",windgrass [18]; [27],0 (Herbicidal rate of 5% or less (almost no effect))
same,herbicidal effect on H: barnyard grass (evaluation grade 0-5),barnyard grass [19]; [28],2 (Herbicidal rate of 20% or more and less than 40%)
same,"Herbicidal effect by soil treatment, I: wild oat",wild oat [20]; [27],0 (Herbicidal rate of 5% or less (almost no effect))
same,herbicidal effect on K: Italian ryegrass (evaluation grade 0-5),Italian ryegrass [21]; [28],5 (Herbicidal rate of 90% or more (almost completely withered))
same,"Herbicidal effect by soil treatment, J: blackgrass",blackgrass [22]; [27],0 (Herbicidal rate of 5% or less (almost no effect))
same,"Herbicidal effect by soil treatment, G: green foxtail",green foxtail [23]; [27],0 (Herbicidal rate of 5% or less (almost no effect))
same,"Herbicidal effect, A: late watergrass",late watergrass; [27],3 (Herbicidal rate of 40% or more and less than 70%)
same,"Herbicidal effect, C: oval-leafed pondweed",oval-leafed pondweed; [27],0 (Herbicidal rate of 5% or less (almost no effect))
same,herbicidal effect on F: southern crabgrass (evaluation grade 0-5),southern crabgrass [24]; [28],0 (Herbicidal rate of 5% or less (almost no effect))
same,"Herbicidal effect by soil treatment, R: persian speedwell",persian speedwell [25]; [27],0 (Herbicidal rate of 5% or less (almost no effect))
